Tests used:
Format in all cases: in vivo, SD rat
cerebral aneurysm model = test: Inhibitory effect on enlargement of cerebral aneurysm in cerebral aneurysm model; settings: 0.1 mg/5 mL suspension, forced oral, once a day from Day 7; measured Day 7, Day 28, Day 49; FIG. 8 and FIG. 9
Procedure: A rat model of cerebral aneurysm was prepared according to the method disclosed on the literature by Hashimoto et al. (Surgical Neurology 1978, Vol. 10, p. 3-8). Namely, 50 mg/kg of pentobarbital was administrated intraperitoneally to a 7-week-old male SD rat, and the left common carotid artery and the left renal artery were ligated by using 10-0 nylon thread under anesthesia (this is referred to as the surgery for inducing cerebral aneurysm). From the day after surgery (Day 1), the rat was reared with being fed a high-salt diet. During a rearing period, the rat was given free access to water. The cerebral aneurysm model was reared with being fed a high-salt diet for 7 days from the day of the surgery so that the model formed cerebral aneurysm. 7 Days after surgery (Week 1, Day 7), the diet for the cerebral aneurysm model was replaced with a normal diet, and forced oral administration of the suspension of Compound 1 at a concentration of 0.1 mg/5 mL to the cerebral aneurysm model was conducted once a day. […] 7 Days after surgery (Week 1, Day 7), 28 days after surgery (Week 4, Day 28), and 49 days after surgery (Week 7, Day 49), the right olfactory artery/anterior cerebral artery bifurcation containing cerebral aneurysm was extirpated and the size of cerebral aneurysm (the maximum diameter and the mean diameter) was measured by similar procedures to Example 1.

macrophages = test: Macrophages infiltrating cerebral aneurysm walls in the enlargement study; settings: 0.1 mg/5 mL suspension, forced oral, once a day from Day 7; 49 days after surgery (Week 7); FIG. 10
Procedure: Immunostaining of macrophages (F4/80-positive cells) was conducted on the prepared section as described below. As a primary antibody solution, a solution in which a rat anti-F4/80 antibody [BM8](AB16911: Abcam) was diluted with a phosphate buffer by 100 times was prepared. As a secondary antibody solution, a solution in which an alexa 488-conjugated donkey anti-rat IgG antibody (Invitrogen) was diluted with a phosphate buffer by 100 times was prepared. The section was allowed to react in the primary antibody solution at 4° C. for 16 hours, washed with a phosphate buffer, and thereafter, was allowed to react in the secondary antibody solution at room temperature for 1 hour. […] In addition, macrophages (F4/80-positive cells) stained green at the peripheries of nuclei (blue) were observed therein (in monochrome FIG. 3A, portions with a higher degree of whiteness). Under the observation with a confocal microscope, the number of macrophages was counted in an area of 100 μm square centered around the cerebrovascular bifurcation where cerebral aneurysm developed. The measurement was conducted on five rats and the mean value was calculated. […] In addition, 49 days after surgery (Week 7), the number of macrophages infiltrating cerebral aneurysm walls was counted according to the procedure of Reference Example 4 under the observation with a confocal microscope.

[1] = tested on: macrophages (F4/80-positive cells); test: Infiltration of macrophages into cerebral aneurysm formation site (F4/80 immunostaining); settings: Day 1 to Day 27, Day 28, vs vehicle group, FIG. 3B
Procedure: A rat model of cerebral aneurysm was prepared according to the method disclosed on the literature by Hashimoto et al. (Surgical Neurology 1978, Vol. 10, p. 3-8). Namely, 50 mg/kg of pentobarbital was administrated intraperitoneally to a 7-week-old male SD rat, and the left common carotid artery and the left renal artery were ligated by using 10-0 nylon thread under anesthesia (this is referred to as the surgery for inducing cerebral aneurysm). From the day after surgery (Day 1), the rat was reared with being fed a high-salt diet. During a rearing period, the rat was given free access to water. Forced oral administration of 0.03 mg/5 mL or 0.1 mg/5 mL of the suspension of Compound 1 to the cerebral aneurysm model was conducted once a day at a dose of 5 mL/kg from 1 day after surgery (Day 1) to 27 days after surgery (Day 27). 28 Days after surgery (Day 28), the treatments on the right olfactory artery/anterior cerebral artery bifurcation containing cerebral aneurysm were conducted by using similar procedures to the steps 1) to 5) of Reference Example 2, and a section of the bifurcation was prepared. […] Under the observation with a confocal microscope, the number of macrophages was counted in an area of 100 μm square centered around the cerebrovascular bifurcation where cerebral aneurysm developed. The measurement was conducted on five rats and the mean value was calculated. […]

C[C@H](Oc1ccc(-c2nc(-c3ccc4[nH]cnc4c3)no2)cc1C(F)(F)F)C(F)(F)F.Cl [Compound 1, 5-{5-[3-(trifluoromethyl)-4-{[(2S)-1,1,1-trifluoropropan-2-yl]oxy}phenyl]-1,2,4-oxadiazol-3-yl}-1H-benzimidazole hydrochloride]
enlargement of cerebral aneurysm (maximum diameter and mean diameter) (cerebral aneurysm model): inhibited the enlargement of cerebral aneurysm | number of macrophages infiltrating cerebral aneurysm walls (macrophages): decreased the number of macrophages at the site where cerebral aneurysm was induced | number of macrophages at the cerebral aneurysm formation site ([1]; 0.03 mg/kg oral once a day): decreased as compared to the number of macrophages in the vehicle group | number of macrophages at the cerebral aneurysm formation site ([1]; 0.1 mg/kg oral once a day): decreased as compared to the number of macrophages in the vehicle group
